Reference: US10662193B2, “Carbazole and carboline compounds for use in the diagnosis, treatment, alleviation or prevention of disorders associated with amyloid or amyloid-like proteins” (AC IMMUNE SA, priority 2014, dated 2020)
Like-named read-outs stand apart in the source and are kept apart here.

Assays:
Format in all cases: binding
[1] = tested on: tau tangles/Aβ plaques on AD brain sections; experiment: Assay 1: direct staining of human Alzheimer's disease brain sections (fluorescence); set-up: key to Direct staining of tau tangles/Aβ plaques on AD brain sections at 100 μM / Direct staining of tau tangles on AD brain sections at 100 μM / Direct staining of Aβ plaques on AD brain sections at 100 μM / Direct staining of tau tangles on AD brain sections (footnote a: at 250 μM): − (No); +++ (strong); ++ (good); + (weak); conditions: 100 μM compound
Outline: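 Compounds (100 μM, 50% aqueous ethanol, 20 min, RT, dark) applied directly to fixed […] frozen amygdala sections of Braak stage V-VI Alzheimer's brains. After washing and 0.1% Sudan Black treatment against autofluorescence, sections were imaged microscopically for fluorescent staining.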

[2] = biological target: Tau enriched paired helical filaments (PHF) from human Alzheimer's disease (AD) brains (Homo sapiens, UniProt P10636); experiment: Assay 3: backscattering interferometry, dissociation constants (Kd)
Source text: Assay 3 (Backscattering Interferometry):
Determination of Dissociation Constants (Kd) of Compounds of this Invention
Enrichment of Paired Helical Filaments (PHF's) from Human Alzheimer's Disease Brains
For backscattering interferometry, Tau enriched paired helical filaments (PHF) from human Alzheimer's disease (AD) brains were used as a target. Due to the limited availability of tissues, to determine dissociation constants (Kd) of compounds of this invention to the target, two different batches of enriched PHF were used. These batches are identified as batch 6 and 7 and were prepared as follows.
PHF batch number 6 was prepared starting from 25 g frontal cortical tissue from post-mortem brains of 25 Alzheimer's disease (AD) patients which were obtained from the London Tissue Bank. The mean age at death for the AD patients was 76 years (48% females). Brain samples were characterized for Braak disease stage (Braak and Braak, 1991), with most donors displaying a stage VI. The postmortem interval between death and brain dissection was between 6 and 65 h. Human brain homogenates were prepared by SB Drug Discovery (Glasgow, Scotland, UK) from the post-mortem cortical tissue of the 25 patients). Each tissue (1 g) was homogenized with a Dounce glass homogenizer in 1.5 mL 100 mM 2-(N-morpholino) ethane-sulfonic acid (MES) pH 6.8, 0.75 M NaCl, 1 mM EGTA, 0.5 mM MgSO4, 2 mM DTT containing protease inhibitors (Complete; Roche 11697498001). For each sample, two aliquots containing 0.5 g brain homogenates in 0.75 mL were shipped to AC Immune SA on dry ice and stored at −80° C. For the enrichment of PHF, 1 aliquot per donor corresponding to total 12.5 g of brain tissue were thawed on ice and then incubated at 4° C. for 20 min to depolymerize any residual microtubules. All samples were then pooled and transferred to three polycarbonate centrifuge bottles (16×76 mm; Beckman 355603).
PHF batch number 7 was prepared starting from 32 g of parietal cortex tissue from post-mortem brain of one Alzheimer's disease (AD) patient was obtained from an external provider (Tissue Solution). The patient was a person who died for end stage AD. The brain sample was collected 5 h post-mortem and characterized for Braak disease stage (Braak and Braak, 1991) as stage VI. The method used for the PHF enrichment was modified from published procedures (Jicha et al., 1997; Rostagno and Ghiso, 2009). Around 16 g of the AD human brain was thawed on ice and homogenized with 50 ml of homogenization buffer [0.75 M NaCl in RAB buffer (100 mM 2-(N-morpholino) ethanesulfonic acid (MES), 1 mM EGTA, 0.5 mM MgSO4, 2 mM DTT, pH 6.8) supplemented with protease inhibitors (Complete; Roche 11697498001)] in a glass Dounce homogenizer. The homogenate was then incubated at 4° C. for 20 min to let depolymerize any residual microtubules, before being transferred into polycarbonate centrifuge bottles (16×76 mm; Beckman 355603). For both purifications, brain homogenates were then centrifuged at 11,000 g (12,700 RPM) in an ultracentrifuge (Beckman, XL100K) for 20 min at 4° C. using the pre-cooled 70.1 rotor (Beckman, 342184). Pellets were kept on ice. Supernatants were pooled into polycarbonate bottles and centrifuged again at 100,000 g (38,000 RPM) for 1 h at 4° C. in the 70.1 Ti rotor to isolate PHF-rich pellets, whereas soluble Tau remained in the supernatants. The pellets from the first and second centrifugations were resuspended in 120 mL of extraction buffer [10 mM Tris-HCl pH 7.4, 10% sucrose, 0.85 M NaCl, 1% protease inhibitor (Calbiochem 539131), 1 mM EGTA, 1% phosphatase inhibitor (Sigma P5726 and P0044)]. The solution was then transferred into polycarbonate centrifuge bottles (16×76 mm; Beckman 355603) and centrifuged at 15,000 g (14,800 RPM) in an ultracentrifuge (Beckman, XL100K) for 20 min at 4° C. using the 70.1 Ti rotor. […]

[3] = tested on: Aβ plaques on AD brain section; experiment: Assay 1: displacement of Compound B on human AD brain sections (fluorescence)
Protocol: Direct Binding of Compounds of this Invention to Human Alzheimer's Disease Brain Sections and/or Displacement of RefA and Compound B Frozen sections with a thickness of […] from the amygdala of donors diagnosed with Braak stage V-VI Alzheimer's Disease (Braak, H.; Braak, E. Acta Neuropathol., 1991, 82, 239-259), were purchased from a commercial provider (Tissue Solutions) and kept at -80° C. until use. Displacement of RefA and Compound B Brain sections were mainly treated as described above. Test compounds were, however, incubated on the section at 250 μM in 50% ethanol for 20 min at room temperature, and then directly incubated with the fluorescent reference compounds RefA and Compound B, each at 1 μM in 50% ethanol for 20 min at room temperature. RefA and Compound B stainings were visualized using the 470 nm and 365 nm excitation filters, respectively. Images were acquired, and tangles and plaques quantified using the NIS-Element software. Only those compounds not directly staining tangles or plaques at the same wavelengths as RefA and Compound B were tested in the displacement assay. Structure of Compound B (prepared by a similar procedure described for […] in WO2010/011964): […]

[4] = tested on: tau tangles on AD brain section; experiment: Assay 1: displacement of RefA on human AD brain sections (fluorescence); conditions: for Selectivity (tau/Abeta): ratio of competition on tau tangles to competition on Aβ plaques
Outline: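 Braak V-VI AD amygdala frozen sections were preincubated with test compound at 250 μM in 50% ethanol for 20 min at room temperature. Fluorescent RefA at 1 μM in 50% ethanol was then added for 20 min, imaged at 470 nm excitation, and tangles were quantified.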

[5] = tested on: human brain slices from the frontal and/or temporal lobes of AD patients; experiment: Autoradiography with 18F-labeled compounds using human brain tissue; conditions: FIG. 14; for competition with amyloid binding compound: block with an amyloid binding compound; for competition with corresponding cold compound: blocking compound 10 μM
Protocol: Autoradiography Using Human Brain Tissue
18 micron thick frozen human brain slices and 6 micron thick human FFPE brain slices from the frontal and/or temporal lobes of AD patients were examined via autoradiography. Brain sections were equilibrated for at least 1 h in 1×PBS solution prior to use in the experiment. Each brain section was covered with a solution of the F-18 labeled tracer (200 Bq/μl, 500 μl) in 1×PBS. For blocking experiments with the corresponding 19F-labeled compound, an excess of the blocking compound was mixed with the 18F-compound to yield an end concentration of 10 μM. The brain sections were allowed to incubate with the tracer solution at room temperature for 1 h, drained afterwards and placed in a slide holder. The slides were then washed sequentially with 1×PBS for 1 min; 70% EtOH in 1×PBS for 2 min; 30% EtOH in 1×PBS for 2 min; and 1×PBS for 1 min. The slides were allowed to air-dry before being placed on Fuji imaging plates for overnight exposure. The imaging plates were scanned and the signal was measured using Fuji software to produce an autoradiographic image of the brain section. Representative examples of autoradiography studies with ^18F-178, ^18F-189, ^18F-161, ^18F-95, ^18F-168, ^18F-146, ^18F-156, ^18F-159 are shown in FIGS. 9 to 12.
The specificity of the signals was confirmed by blocking with an excess of the corresponding non-radioactive compounds.

[6] = PHF batch 7 (parietal cortex, one AD patient), read-out: [Kd] on PHF batch 7
[7] = PHF batch 6 (pooled frontal cortex, 25 AD patients), read-out: [Kd] on PHF batch 6

Chain of Tau enriched paired helical filaments (PHF) from human Alzheimer's disease (AD) brains (P10636 623-708 limits assumed): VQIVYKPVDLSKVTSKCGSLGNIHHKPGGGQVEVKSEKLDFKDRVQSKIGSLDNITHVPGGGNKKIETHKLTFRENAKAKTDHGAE

Row | Structure (SMILES) | Direct staining of tau tangles on AD brain sections at 100 μM [1] | Kd [2, 6] | Kd [2, 7] | other results
1 | Cn1c2ccncc2c2ccc(N3CCN(CCF)CC3)nc21 [168 Step B] | ++ (tangles) | 160 ± 30 nM |  | Competition on AD brain section Aβ plaques (1 μM Compound B vs 250 μM compound) [3]: −1%
2 | Cn1c2ccncc2c2ccc(Nc3ccnc(F)c3)nc21 [Example 23] |  | 11 ± 2 nM | 38 ± 6 nM | 
3 | Cn1c2ccncc2c2ccc(Nc3cccc(F)n3)nc21 [Example 28] | + (tangles) | 400 ± 60 nM |  | 
4 | Cn1c2ccncc2c2ccc(Nc3cc(F)ccn3)nc21 [Example 51] | +++ (tangles) | 260 ± 50 nM |  | 
5 | Cn1c2ccncc2c2ccc(Nc3cc(OCCF)ccn3)nc21 [Example 63] |  |  | 20 ± 3 nM | 
6 | Cn1c2ccncc2c2ccc(N3CC4(CC(F)C4)C3)nc21 [Example 146] | ++ (tangles) | 40 ± 10 nM |  | Competition on AD brain section Aβ plaques (1 μM Compound B vs 250 μM compound) [3]: 0%
7 | Cn1c2ccncc2c2ccc(N3[C@@H]4CC[C@H]3C[C@H](F)C4)nc21 [Example 147] | ++ (tangles) | 170 ± 40 nM |  | 
8 | Cn1c2ccncc2c2ccc(N3CC4(CC(OCCOCCOCCF)C4)C3)nc21 [Example 153] | ++ (tangles) |  | 20 ± 5 nM | 
9 | Cn1c2ccncc2c2ccc(N3CC4(CC(OCCF)C4)C3)nc21 [Example 154] | ++ (tangles) | 270 ± 50 nM |  | 
10 | Cn1c2ccncc2c2ccc(N3CCC(OCCF)CC3)nc21 [Example 156] | + (tangles) |  | 26 ± 7 nM | Competition on AD brain section tau tangles (1 μM RefA vs. 250 μM compound) [4]: 72%; Selectivity (tau/Abeta) [4]: >72 fold; Competition on AD brain section Aβ plaques (1 μM Compound B vs 250 μM compound) [3]: −8%
11 | Cn1c2ccncc2c2ccc(N3CCC[C@@H](F)C3)nc21 [Example 159] | + (tangles) | 120 ± 20 nM |  | 
12 | Cn1c2ccncc2c2ccc(N3CCC(F)CC3)nc21 [Example 161] | + (tangles) |  | 18 ± 3 nM | Competition on AD brain section tau tangles (1 μM RefA vs. 250 μM compound) [4]: 85%; Selectivity (tau/Abeta) [4]: ~6-fold; Competition on AD brain section Aβ plaques (1 μM Compound B vs 250 μM compound) [3]: 14%
13 | CN1CCc2c(c3ccc(Nc4cccc(OCCF)c4)nc3n2C)C1=O [Example 189] | ++ (tangles) |  | 16 ± 3 nM | 
14 | Cn1c2cc[nH]c(=O)c2c2ccc(Nc3cccc(OCCF)c3)nc21 [Example 197] | + (tangles) |  | 100 ± 15 nM | 
15 | Cn1c2c(c3ccc(Nc4ccc(F)c(OCCF)c4)nc31)C(=O)NCC2 [Example 201] |  |  | 75 ± 12 nM | Direct staining of tau tangles/Aβ plaques on AD brain sections at 100 μM ([1]; human AD brain sections, fluorescence, cell does not say tangles or plaques): −
16 | Cn1c2ccncc2c2ccc(N3CCC(OCCOCC[18F])CC3)nc21 [^18F-152] |  |  |  | competition with amyloid binding compound [5]: no competition; competition with corresponding cold compound [5]: Competition observed
17 | Cn1c2ccncc2c2ccc(N3CCC(OCC[18F])CC3)nc21 [^18F-156] |  |  |  | competition with amyloid binding compound [5]: no competition; competition with corresponding cold compound [5]: Competition observed
18 | Cn1c2ccncc2c2ccc(N3CC[C@H]([18F])C3)nc21 [^18F-160] |  |  |  | competition with amyloid binding compound [5]: no competition; competition with corresponding cold compound [5]: Competition observed
19 | Cn1c2ccncc2c2ccc(N3CCC([18F])CC3)nc21 [^18F-161] |  |  |  | competition with amyloid binding compound [5]: no competition; competition with corresponding cold compound [5]: Competition observed
20 | Cn1c2ccncc2c2ccc(N3CCN(CC[18F])CC3)nc21 [^18F-168] |  |  |  | competition with amyloid binding compound [5]: no competition; competition with corresponding cold compound [5]: Competition observed
21 | Cn1c2c(c3ccc(Nc4cccc(OCCF)c4)nc31)C(=O)NCC2 [drawing 1063] |  |  | 46 ± 9 nM | 
